Results taken from patent US11504380B2, “Method of treatment of cirrhosis” (INVENTIVA, priority 2019, dated 2022).

Columns and labels:
Assay type in all cases: in vivo, Sprague Dawley rats
[1] = test system: rat model of cirrhosis induced by the administration of thioacetamide (TAA); test: Liver tissue protein levels by Western blot in TAA-induced cirrhotic rats; details: TAA-exposed rats, 100 mg/kg, vs vehicle
Description: (§1) Lanifibranor has been assessed in a rat model of cirrhosis induced by the administration of thioacetamide (TAA), which administration leads to the development of fibrosis in the early time points and then of cirrhosis in the late time points, turning for the majority of the animals to decompensated cirrhosis. Sprague Dawley rats (12-15 rats per groups) were intraperitoneally administered TAA (twice a week) for a period of twelve weeks to ensure reaching decompensated cirrhosis. At the end of this period, a TAA detoxification period of four days was observed. The rats were then orally administered for two weeks with either lanifibranor at 100 mg/kg/day in vehicle (methylcellulose 1%+poloxamer-188 0.1%), or with vehicle alone (control). At the end of the two weeks of treatment in vivo systemic and hepatic hemodynamics were determined and rats were then sacrificed, and plasma samples and liver tissue were harvested. Triton lysis buffer was used for protein extraction of liver tissue samples. Proteins were separated by molecular weight by electrophoresis using a sodium dodecylsulphate polyacrylamide gel, and transferred to a nitrocellulose membrane (Western blot).

[2] = test system: rat model of cirrhosis induced by the administration of thioacetamide (TAA); test: Liver histology (Sirius Red collagen staining) and electron microscopy of sinusoidal fenestrae in TAA-induced cirrhotic rats; details: TAA-exposed rats, 100 mg/kg
Description: as §1, with “Liver tissue samples” for “Triton lysis buffer was used”, “histology” for “protein extraction of liver tissue samples. Proteins”, “fixed in 4% formaldehyde (Sigma), embedded in paraffin, sectioned and stained with 0.1% Sirius Red in picric acid aqueous solution (Sigma). Sinusoidal fenestrae were analyzed” for “separated”, “electronic microscopy.” for “molecular weight by electrophoresis using a sodium dodecylsulphate polyacrylamide gel, and transferred to a nitrocellulose membrane (Western blot).”

[3] = test system: rat model of cirrhosis induced by the administration of thioacetamide (TAA); test: Liver tissue mRNA expression by qPCR in TAA-induced cirrhotic rats; details: TAA-exposed rats, 100 mg/kg
Description: as §1, with “RNA” for “Triton lysis buffer”, “extracted from” for “used for protein extraction of”, “tissue” for “tissue samples. Proteins were separated by molecular weight by electrophoresis”, “using Trizol (Life Technologies), and quantified with the help of” for “using”, “NanoDrop spectrophotometer. Reverse transcription was carried out following QuantiTect reverse transcription kit (Qiagen). qPCR was performed using PowerUp SYBR Green Master Mix (Thermo Fisher)” for “sodium dodecylsulphate polyacrylamide gel,”, “specific primers.” for “transferred to a nitrocellulose membrane (Western blot).”

[4] = test system: rat model of cirrhosis induced by the administration of thioacetamide (TAA); test: Systemic and hepatic hemodynamics, ascites and body/organ weights in TAA-induced cirrhotic rats; details: for IHVR (intrahepatic resistance) / PBF (portal blood flow) / PP (portal pressure): 100 mg/kg/day
Description: as §1, with “The hemodynamics measurements were obtained as follow: mean arterial pressure (MAP) and heart rate (HR) were measured by cannulating the femoral artery; portal pressure (PP)” for “Triton lysis buffer”, “measured” for “used for protein extraction of liver tissue samples. Proteins were separated”, “cannulating the ileocolic vein, both with” for “molecular weight by electrophoresis using”, “heparinized p50 catheter (Portex) connected” for “sodium dodecylsulphate polyacrylamide gel, and transferred”, “pressure probe; portal blood flow (PBF) was determined with the help of specific non-constrictive perivascular ultrasonic transit-time flow probe (Transonic Systems Inc.).” for “nitrocellulose membrane (Western blot).”

[5] = test system: rat model of cirrhosis induced by the administration of thioacetamide (TAA); test: AST protein content in plasma of TAA-induced cirrhotic rats; details: TAA-exposed rats, 100 mg/kg, vs vehicle, p<0.005 (FIG. 8)
Description: as §1, with “harvested.” for “harvested. Triton lysis buffer was used for protein extraction of liver tissue samples. Proteins were separated by molecular weight by electrophoresis using a sodium dodecylsulphate polyacrylamide gel, and transferred to a nitrocellulose membrane (Western blot).”

[6] = TAA-exposed rats, 100 mg/kg/day orally for two weeks
[7] = TAA-exposed rats, 100 mg/kg/day orally for two weeks, listed as lanifibranor

O=C(O)CCCc1cc2cc(Cl)ccc2n1S(=O)(=O)c1ccc2ncsc2c1 [Lanifibranor, 4-[1-(1,3-benzothiazol-6-ylsulfonyl)-5-chloroindol-2-yl]butanoic acid]
protein level of Von Willebrand factor ([1]; p<0.01 (FIG. 5)): significantly reduced | α-SMA expression at protein level ([1]; p<0.05 (FIG. 3a)): significantly reduced | protein level of Desmin ([1]; p<0.05 (FIG. 3b)): significantly reduced | collagen deposition (PicroSirius Red, PSR, staining) [2]: 12.3% | sinusoidal capillarization (sinusoidal fenestrae) ([2]; vs vehicle, p<0.05 (FIG. 4), electronic microscopy): significantly reduced | histological decrease in collagen deposition compared to vehicle ([2]; PicroSirius Red staining): 32% | VCAM-1 mRNA expression ([3]; vs vehicle (FIG. 6)): a trend | E-Selectin mRNA ([3]; vs vehicle, P<0.05 (FIG. 6)): significant decrease | ICAM-1 mRNA ([3]; vs vehicle, P<0.05 (FIG. 6)): significant decrease | TIMP1 mRNA expression ([3]; vs vehicle, p<0.001 (FIG. 2)): significantly reduced | collagen 1a1 mRNA expression ([3]; vs vehicle, p<0.005 (FIG. 1)): significant decrease | α-SMA expression at mRNA level ([3]; vs vehicle, p<0.005 (FIG. 3a)): significantly reduced | TIMP2 mRNA expression ([3]; vs vehicle, p<0.05 (FIG. 2)): significantly reduced | IL-6 mRNA expression ([3]; vs vehicle, p<0.05 (FIG. 7)): significantly decreased | Ascites [4, 6]: 16% | MAP (mean arterial pressure) [4, 6]: 84 ± 2 mmHg | IHVR (intrahepatic resistance) [4, 6]: 0.53 ± 0.06 mmHg · min/mL | PBF (portal blood flow) [4, 6]: 23.5 ± 2.1 mL/min | PP (portal pressure) [4, 6]: 11.2 ± 0.5 mmHg | IHVR (intrahepatic resistance) [4, 7]: 0.75±0.1 mmHg · min/mL | PBF (portal blood flow) [4, 7]: no significant changes | PP (portal pressure) [4, 7]: 11.2±0.5 mmHg | systemic hemodynamics ([4]; cirrhotic rats administered with lanifibranor vs vehicle): No effects | AST protein content in plasma [5]: significantly decreased
